Test systems include VcMshEN_N L54A/L58A; VcMshEN L10A-L54A-L58A; VcMshEN_N L25A; VcMshEN_N L10A/L54A/L58A; VcMshEN_N L25A/L29A; VcMshEN_N L10A; VcMshEN_N G40I; VcMshEN_N G11L.
Assay type in all cases: binding
The next test deals with VcMshEN G11L.
For another test, the target named is VcMshEN L10A/L58A.

Each structure is given as a SMILES string.

Regarding `Nc1nc2c(ncn2[C@@H]2O[C@@H]3CO[P@](=O)(O)O[C@H]4[C@@H](O)[C@H](n5cnc6c(=O)[nH]c(N)nc65)O[C@@H]4CO[P@](=O)(O)O[C@H]3[C@H]2O)c(=O)[nH]1` [c-di-GMP, Cyclic dimeric GMP], the “Melting temperature Tm, + c-di-GMP” value with VcMshEN_N L54A/L58A is listed as 54 ºC; in the test with VcMshEN_N L25A, 60 ºC; with VcMshEN_N L10A/L54A/L58A, 53 ºC; in the test on VcMshEN_N L25A/L29A, 59 ºC; in the test on VcMshEN_N L10A, 56 ºC; in the test with VcMshEN_N G40I, 56 ºC. The “Melting temperature Tm, + c-di-GMP” value in the test on VcMshEN_N G11L is 52 ºC. For the same compound, the “Dissociation constant (KD)” value on VcMshEN G11L is listed as “abrogated c-di-GMP binding”; on VcMshEN L10A/L58A it was “cannot bind c-di-GMP”. For the same compound, in the test with VcMshEN L10A-L54A-L58A, the “c-di-GMP binding in vitro” value is “abrogates the ability of VcMshEN to bind c-di-GMP”. For the same compound, the “Tm Difference” value with VcMshEN_N L25A/L29A was 9 ºC. Also, the “Fold reduction of binding affinity” value with VcMshEN L10A/L58A was above 100.

For the origin of these results see article PMC5013675, “Nucleotide binding by the widespread high-affinity cyclic di-GMP receptor MshEN domain” (Nature Communications, 2016).
